Earlier results, collected in US20100047365A1, “WHEAT-GERM OIL CONCENTRATE, A METHOD FOR THE PRODUCTION THEREOF, A METHOD FOR PRODUCING WHEAT-GERM OIL, AND A MEDICINAL AND PROPHYLACTIC COMPOSITION BASED THEREON FOR RESTORATION OF DISORDERS IN SEXUAL FUNCTIONS” (OTKRYTOE AKTSIONERNOE, priority 2006, published 2010).

Settings: relative ranking of tocopherol forms

Compound	antioxidant activity
Cc1cc(O)c(C)c2c1O[C@](C)(CCC[C@H](C)CCC[C@H](C)CCCC(C)C)CC2 [β-tocopherol]	0.45
tocopherol	0.6
Cc1cc(O)cc2c1O[C@](C)(CCC[C@H](C)CCC[C@H](C)CCCC(C)C)CC2 [δ-tocopherol]	1.0
Cc1c(C)c2c(c(C)c1O)CC[C@@](C)(CCC[C@H](C)CCC[C@H](C)CCCC(C)C)O2 [α-tocopherol]	0.3
